Usually Ki stands for a measure of affinity in units of concentration, obtained from inhibition or displacement. As usually defined, the inhibition is the relative decrease from the control value, in per cent. A lower inhibition goes with a weak effect.

Each structure is given as a SMILES string.

In assay [1] the target is T1, Adenosine receptor A1 (Rattus norvegicus, UniProt P25099).
T1 sequence (P25099 whole entry): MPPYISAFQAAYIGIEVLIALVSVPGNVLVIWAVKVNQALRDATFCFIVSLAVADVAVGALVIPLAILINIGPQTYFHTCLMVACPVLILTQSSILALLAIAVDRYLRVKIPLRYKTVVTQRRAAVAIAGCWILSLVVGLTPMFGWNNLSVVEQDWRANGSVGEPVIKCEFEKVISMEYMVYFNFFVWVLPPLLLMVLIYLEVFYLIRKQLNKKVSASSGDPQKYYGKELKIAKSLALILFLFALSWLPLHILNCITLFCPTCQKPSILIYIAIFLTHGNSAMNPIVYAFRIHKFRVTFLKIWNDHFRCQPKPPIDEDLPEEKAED
As to the kind of experiment: Binding affinity at Adenosine A1 receptor in rat brain cortical membrane using [3H]N6-R-phenylisopropyladenosine (R-PIA) as radioligand. Format: cell membranes.

In assay [2] the target is Adenosine A2 receptor (Rattus norvegicus, UniProt P29276+P30543). The assay is described as follows: Binding affinity against Adenosine A2 receptor in rat striatal membranes using [3H]5'-(N-ethylcarboxamido)-adenosine (NECA) as the ligand. Format: cell membranes, Striatum, Membrane.
Assay [3] addresses T2, Adenosine A2 receptor (Rattus norvegicus) (UniProt P29276+P30543). The conditions noted are these: Striatum, Membrane, at 250 µM.
Description: Binding affinity at Adenosine A2 receptor in rat striatal membrane using [3H]- 5'-N-ethylcarboxamidoadenosine (NECA) at 250 uM
In assay [4] the target is T3, Adenosine receptor A1 (Rattus norvegicus) (UniProt P25099).
T3 sequence (whole entry): T1 sequence (P25099 whole entry)
The assay is described as follows: Binding affinity at Adenosine A1 receptor in rat brain cortical membrane using [3H]- N6-R-phenylisopropyladenosine (R-PIA). The following applies: concentration not given here. It counts as cell membranes.

The target of assay [5] is T1, Adenosine receptor A1. As to the kind of experiment: Binding affinity at A1 adenosine receptor in rat brain cortical membrane using [3H]- N6-R-phenylisopropyladenosine (R-PIA). Format: cell membranes.
Assay [6] concerns the target T3, Adenosine receptor A1 (Rattus norvegicus). The assay is described as follows: Binding affinity at Adenosine A1 receptor in rat brain cortical membrane using [3H]- N6-R-phenylisopropyladenosine (R-PIA) at 100 uM. It counts as cell membranes.
Assay [7] shares this target. The assay is described as follows: Binding affinity at A1 adenosine receptor in rat brain cortical membrane using [3H]- N6-R-phenylisopropyladenosine (R-PIA) at 250 uM. Format: cell membranes.
Assay [8] addresses T2, Adenosine A2 receptor (Rattus norvegicus). As to the kind of experiment: Binding affinity at Adenosine A2 receptor in rat striatal membrane using [3H]- 5'-N-ethylcarboxamidoadenosine (NECA) at 200 uM. The following applies: Striatum.
The target is the same in assay [9]. As to the kind of experiment: Binding affinity at Adenosine A2 receptor in rat striatal membrane using [3H]- 5'-N-ethylcarboxamidoadenosine (NECA) at 200 uM. Format: cell membranes. The conditions noted are these: Striatum.
The target of assay [10] is T3, Adenosine receptor A1 (Rattus norvegicus). The conditions noted are these: Brain, at 250 µM.
Assay [11] has as its target T2, Adenosine A2 receptor (Rattus norvegicus). The assay is described as follows: Binding affinity at Adenosine A2 receptor in rat striatal membrane using [3H]- 5'-N-ethylcarboxamidoadenosine (NECA) at 20 uM. It counts as cell membranes. The conditions noted are these: Striatum.
Assay [12] concerns the target T3, Adenosine receptor A1 (Rattus norvegicus). The assay is described as follows: Binding affinity at Adenosine A1 receptor in rat brain cortical membrane using [3H]- N6-R-phenylisopropyladenosine (R-PIA) at 200 uM.
The target of assay [13] is T2, Adenosine A2 receptor (Rattus norvegicus). The assay is described as follows: Binding affinity at Adenosine A2 receptor in rat striatal membrane using [3H]- 5'-N-ethylcarboxamidoadenosine (NECA) at 1 uM. It counts as cell membranes. The conditions noted are these: Striatum.
Assay [14] concerns the target T3, Adenosine receptor A1 (Rattus norvegicus). The assay is described as follows: Binding affinity at Adenosine A1 receptor in rat brain cortical membrane using [3H]- N6-R-phenylisopropyladenosine (R-PIA) at 250 uM. It counts as cell membranes.

Consider `C#CCn1c(=O)[nH]c2[nH]c(-c3ccccc3)nc2c1=O`, for which the Ki in [1] turned out to be 0.21 µM; in assay [2], 0.73 µM.

`C#CCn1c(=O)c2c(nc(-c3ccccc3)n2C)n(C)c1=O`: the figures for the Ki in assay [1] and in assay [2] were 6.1 µM and 6.4 µM, respectively.

In [1], `Cn1c(=O)[nH]c(=O)c2[nH]c(-c3ccccc3)nc21` registered a Ki of 3.4 µM. The compound further returned an inhibition in assay [3] of 17%.

As for `CC(=O)Cn1c(=O)[nH]c2[nH]c(C3CCCC3)nc2c1=O`, the values for the Ki in assay [1] and in assay [2] were 2.5 µM and 9.7 µM, respectively.

In turn, `CCCn1c(=O)[nH]c(=O)c2[nH]c(C3CCCCC3)nc21` registered a Ki in [2] of 24 µM.

In the case of `Cn1c(=O)[nH]c(=O)c2[nH]c(-c3ccc(S(=O)(=O)O)cc3)nc21`, the inhibition was 5% in assay [4] and 16% in [3].

In turn, `CC(C)Cn1c(=O)n(C)c(=O)c2nc[nH]c21` [ISOBUTYLMETHYLXANTHINE] yielded a Ki in [2] of 16 µM.

Take `O=c1[nH]c2nc(-c3ccccc3)[nH]c2c(=O)n1CCc1ccccc1`: the Ki in [1] turned out to be 0.19 µM.

For `Cn1c(=O)[nH]c2[nH]c(-c3ccccc3)nc2c1=O`, the Ki in assay [1] amounted to 0.26 µM; in assay [2], 2.2 µM.

Regarding `Cn1c(=O)[nH]c2[nH]cnc2c1=O` [1-METHYLXANTHINE], the Ki in assay [1] stood at 36 µM; in assay [2] it was 47 µM.

Turning to `CCCn1c(=O)[nH]c2[nH]cnc2c1=O`, the values for the inhibitory constant (Ki) in assay [1] and in assay [2] were 13 µM and 33 µM, respectively.

Take `C=CCn1c(=O)c2[nH]c(-c3ccccc3)nc2n(C)c1=O`: the figures for the Ki in assay [1] and in [2] were 0.1 µM and 2.1 µM, respectively.

`CC(C)Cn1c(=O)c2nc[nH]c2n(CC(C)C)c1=O`: the Ki in assay [1] came out at 4 µM.

`CCCn1c(=O)[nH]c2[nH]c(C3CCCC3)nc2c1=O`: the Ki in assay [1] was determined as 0.014 µM; in [2], 0.58 µM.

On to `CC(C)CCn1c(=O)c2nc[nH]c2n(CC(C)C)c1=O`, for which the Ki in assay [2] is 11 µM.

With `O=c1[nH]c2[nH]cnc2c(=O)n1Cc1ccccc1`, the Ki is 2.8 µM in assay [1] and 22 µM in assay [2].

Take `O=c1[nH]c(=O)c2[nH]c(-c3ccccc3)nc2[nH]1`: the Ki in assay [5] worked out at 2.5 µM; in assay [2], 21 µM.

In turn, `CC(C)n1c(=O)[nH]c(=O)c2[nH]cnc21` yielded an inhibition in assay [6] of 34%. In assay [2], the inhibition constant (Ki) is 53 µM.

On to `CCn1c(=O)c2nc[nH]c2n(CC)c1=O`, for which the Ki in [1] was 3.7 µM; in assay [2], 31 µM.

For the compound `Cn1c(=O)[nH]c(=O)c2[nH]cnc21` [3-METHYLXANTHINE], the inhibition in assay [6] worked out at 24%. This compound returned a Ki in assay [2] of 59 µM.

On to `CCn1c(=O)[nH]c2[nH]c(-c3ccccc3)nc2c1=O`, for which the Ki is 0.15 µM in assay [1] and 1.8 µM in [2].

With `CCCn1c(=O)[nH]c2nc(-c3ccc(S(=O)(=O)O)cc3)[nH]c2c1=O`, the results for the inhibition constant Ki in assay [1] and in [2] were 2.2 µM and 24 µM, respectively.

With `O=c1[nH]c2[nH]cnc2c(=O)n1C1CCCC1`, the Ki in [1] came out at 11 µM; in assay [2], 13 µM.

On to `CN1CN(C)c2c(O)nc(O)nc21`, for which the inhibition in assay [7] was found to be 5%; in assay [8], 6%.

`CCCn1c(=O)[nH]c2[nH]c(-c3ccccc3)nc2c1=O`: the Ki in assay [2] amounted to 1.9 µM.

In the case of `O=c1[nH]c2nc(-c3ccccc3)[nH]c2c(=O)n1Cc1cccc(Cl)c1`, the affinity in assay [5] corresponds to a Ki of 0.068 µM.

On to `C=CCn1c(=O)[nH]c2[nH]cnc2c1=O`, for which the Ki in assay [1] was 9.2 µM; in assay [2], 10 µM.

Turning to `CCCCn1c(=O)[nH]c2[nH]cnc2c1=O`, the Ki in assay [2] turned out to be 61 µM.

With `Cn1cnc2c(=O)[nH]c(=O)n(C)c21`, the inhibition amounted to 11% in [9] and 42% in [10].

As for `Cn1cnc2[nH]c(=O)[nH]c(=O)c21` [7-METHYLXANTHINE], the Ki in assay [1] stood at 33 µM; in [2] it was 59 µM.

In turn, `O=c1[nH]c2[nH]cnc2c(=O)n1CCc1ccccc1` returned an inhibition in [11] of 0%.

In turn, `CCn1c(=O)[nH]c2[nH]c(C3CCCCC3)nc2c1=O` came in with a Ki in [2] of 2.3 µM.

Turning to `CCCn1cnc2c(=O)[nH]c(=O)[nH]c21`, the figures for the inhibition in [7] and in [3] were 42% and 15%, respectively.

In the case of `O=c1[nH]c2nc[nH]c2c(=O)n1CCc1ccccc1`, the Ki in assay [1] worked out at 12 µM.

Turning to `CCCn1c(=O)c2nc[nH]c2n(C)c1=O`, the Ki in assay [1] was 5.7 µM; in assay [2], 37 µM.

In the case of `CCCn1c(=O)n(C)c(=O)c2[nH]cnc21`, the inhibition constant (Ki) amounted to 6.3 µM in assay [1] and 19 µM in assay [2].

Take `C#CCn1c(=O)[nH]c2ncn(C)c2c1=O`: the Ki is 22 µM in [1] and 16 µM in [2].

For `Cn1c(=O)[nH]c2c(ncn2C)c1=O`, the figures for the inhibition in [9] and in assay [12] were 14% and 11%, respectively.

Consider `C#CCn1c(=O)c2[nH]cnc2n(C)c1=O`, for which the Ki in assay [1] was found to be 0.82 µM; in assay [2], 4.8 µM.

In assay [1], `CCCn1cnc2[nH]c(=O)[nH]c(=O)c21` yielded a Ki of 18 µM. In assay [9], this compound displayed an inhibition of 40%.

In the case of `C#CCn1c(=O)[nH]c2[nH]cnc2c1=O`, the Ki in assay [1] was determined as 20 µM; in [2] it was 26 µM.

As for `C#CCn1cnc2[nH]c(=O)n(C)c(=O)c21`, the Ki in assay [1] was 9.9 µM; in [2] it was 14 µM.

With `O=c1[nH]c2[nH]c(-c3ccccc3)nc2c(=O)n1Cc1cccc(Cl)c1`, the inhibition in assay [13] turned out to be 32%.

On to `CCCn1c(=O)[nH]c2ncn(C)c2c1=O`, for which the Ki in [1] is 21 µM; in [2], 29 µM.

In the case of `CCCCn1cnc2[nH]c(=O)[nH]c(=O)c21`, the Ki in assay [1] worked out at 27 µM; in assay [2] it was 66 µM.

`Cn1c(=O)[nH]c2ncn(C)c2c1=O` [PARAXANTHINE]: the inhibition constant Ki in assay [1] was 21 µM; in [2], 32 µM.

Take `C#CCn1c(=O)[nH]c2[nH]c(C3CCCCC3)nc2c1=O`: the inhibitory constant (Ki) was determined as 0.17 µM in assay [1] and 1.7 µM in assay [2].

In the case of `O=c1[nH]c2[nH]c(-c3ccccc3)nc2c(=O)n1CCc1ccccc1`, the inhibition in [13] turned out to be 0%.

In assay [2], `CCCn1c(=O)[nH]c(=O)c2[nH]c(-c3ccccc3)nc21` came in with a Ki of 61 µM.

Consider `O=c1[nH]c2[nH]cnc2c(=O)n1Cc1cccc(Cl)c1`, for which the Ki came out at 4.9 µM in assay [1] and 26 µM in [2].

With `CC(C)n1c(=O)n(C)c(=O)c2[nH]cnc21`, in assay [2], the Ki turned out to be 16 µM.

Take `CCCn1c(=O)[nH]c(=O)c2[nH]c(-c3ccc(S(=O)(=O)O)cc3)nc21`: the inhibition in [14] worked out at 40%; in [3], 44%.

`C=CCn1cnc2c1c(=O)[nH]c(=O)n2CC=C`: the Ki in assay [1] and in [2] was 36 µM throughout.

In the case of `CCn1c(=O)c2nc[nH]c2n(C)c1=O`, in assay [2], the Ki was determined as 23 µM.

(Values after ChEMBL document CHEMBL1126876, “Synthesis of paraxanthine analogs (1,7-disubstituted xanthines) and other xanthines unsubstituted at the 3-position: structure-activity relationships at adenosine receptors” (J Med Chem, 1993).)
